In the NIST ThermoML archive (doi:10.1016/j.jct.2011.08.016):

Assay: xn = mol fraction of the nth substance listed
Settings: Liquid, Vibrating tube method

CCCCCCCCCC [decane] + CCCCCCC
Settings | mass density [kg/m3]
363.02 K, 16000 kPa, x2 = 0.777 | 658.24
363.02 K, 17000 kPa, x2 = 0.5219 | 673.01
363.02 K, 17000 kPa, x2 = 0.777 | 659.41
363.02 K, 18000 kPa, x2 = 0.5219 | 674.09
363.02 K, 18000 kPa, x2 = 0.777 | 660.5
363.02 K, 19000 kPa, x2 = 0.5219 | 675.09
363.02 K, 19000 kPa, x2 = 0.777 | 661.57
363.02 K, 20000 kPa, x2 = 0.5219 | 676.07
363.02 K, 20000 kPa, x2 = 0.777 | 662.62
363.02 K, 21000 kPa, x2 = 0.5219 | 677.05
363.02 K, 21000 kPa, x2 = 0.777 | 663.64
363.02 K, 22000 kPa, x2 = 0.5219 | 677.98
363.02 K, 22000 kPa, x2 = 0.777 | 664.64
363.02 K, 23000 kPa, x2 = 0.5219 | 678.94
363.02 K, 23000 kPa, x2 = 0.777 | 665.63
363.02 K, 24000 kPa, x2 = 0.5219 | 679.87
363.02 K, 24000 kPa, x2 = 0.777 | 666.6
363.02 K, 25000 kPa, x2 = 0.5219 | 680.76
363.02 K, 25000 kPa, x2 = 0.777 | 667.53
363.03 K, 1000 kPa, x2 = 0.0531 | 674.85
363.03 K, 1000 kPa, x2 = 0.952 | 627.08
363.03 K, 2000 kPa, x2 = 0.0531 | 676.04
363.03 K, 2000 kPa, x2 = 0.952 | 628.62
363.03 K, 3000 kPa, x2 = 0.0531 | 677.23
363.03 K, 3000 kPa, x2 = 0.952 | 630.14
363.03 K, 4000 kPa, x2 = 0.0531 | 678.38
363.03 K, 4000 kPa, x2 = 0.952 | 631.64
363.03 K, 5000 kPa, x2 = 0.0531 | 679.52
363.03 K, 5000 kPa, x2 = 0.952 | 633.12
363.03 K, 6000 kPa, x2 = 0.0531 | 680.65
363.03 K, 6000 kPa, x2 = 0.952 | 634.56
363.03 K, 7000 kPa, x2 = 0.0531 | 681.75
363.03 K, 7000 kPa, x2 = 0.952 | 635.98
363.03 K, 8000 kPa, x2 = 0.0531 | 682.84
363.03 K, 8000 kPa, x2 = 0.952 | 637.36
363.03 K, 9000 kPa, x2 = 0.0531 | 683.92
363.03 K, 9000 kPa, x2 = 0.952 | 638.71
363.03 K, 10000 kPa, x2 = 0.0531 | 684.98
363.03 K, 10000 kPa, x2 = 0.952 | 640.03
363.03 K, 11000 kPa, x2 = 0.0531 | 686.02
363.03 K, 11000 kPa, x2 = 0.952 | 641.33
363.03 K, 12000 kPa, x2 = 0.0531 | 687.05
363.03 K, 12000 kPa, x2 = 0.952 | 642.61
363.03 K, 13000 kPa, x2 = 0.0531 | 688.07
363.03 K, 13000 kPa, x2 = 0.952 | 643.86
363.03 K, 14000 kPa, x2 = 0.0531 | 689.07
363.03 K, 14000 kPa, x2 = 0.952 | 645.09
363.03 K, 15000 kPa, x2 = 0.0531 | 690.05
363.03 K, 15000 kPa, x2 = 0.952 | 646.3
363.03 K, 16000 kPa, x2 = 0.0531 | 691.03
363.03 K, 16000 kPa, x2 = 0.952 | 647.49
363.03 K, 17000 kPa, x2 = 0.0531 | 691.98
363.03 K, 17000 kPa, x2 = 0.952 | 648.66
363.03 K, 18000 kPa, x2 = 0.0531 | 692.93
363.03 K, 18000 kPa, x2 = 0.952 | 649.8
363.03 K, 19000 kPa, x2 = 0.0531 | 693.87
363.03 K, 19000 kPa, x2 = 0.952 | 650.92
363.03 K, 20000 kPa, x2 = 0.0531 | 694.79
363.03 K, 20000 kPa, x2 = 0.952 | 652.02
363.03 K, 21000 kPa, x2 = 0.0531 | 695.7
363.03 K, 21000 kPa, x2 = 0.952 | 653.1
363.03 K, 22000 kPa, x2 = 0.0531 | 696.6
363.03 K, 22000 kPa, x2 = 0.952 | 654.16
363.03 K, 23000 kPa, x2 = 0.0531 | 697.47
363.03 K, 23000 kPa, x2 = 0.952 | 655.2
363.03 K, 24000 kPa, x2 = 0.0531 | 698.37
363.03 K, 24000 kPa, x2 = 0.952 | 656.21
363.03 K, 25000 kPa, x2 = 0.0531 | 699.21
363.03 K, 25000 kPa, x2 = 0.952 | 657.21
363.06 K, 1000 kPa, x2 = 0.2594 | 666.7
363.06 K, 2000 kPa, x2 = 0.2594 | 667.89
363.06 K, 3000 kPa, x2 = 0.2594 | 669.1
363.06 K, 4000 kPa, x2 = 0.2594 | 670.27
363.06 K, 5000 kPa, x2 = 0.2594 | 671.44
363.06 K, 6000 kPa, x2 = 0.2594 | 672.61
363.06 K, 7000 kPa, x2 = 0.2594 | 673.77
363.06 K, 8000 kPa, x2 = 0.2594 | 674.91
363.06 K, 9000 kPa, x2 = 0.2594 | 676.05
363.06 K, 10000 kPa, x2 = 0.2594 | 677.17
363.06 K, 11000 kPa, x2 = 0.2594 | 678.26
363.06 K, 12000 kPa, x2 = 0.2594 | 679.34
363.06 K, 13000 kPa, x2 = 0.2594 | 680.41
363.06 K, 14000 kPa, x2 = 0.2594 | 681.46
363.06 K, 15000 kPa, x2 = 0.2594 | 682.5
363.06 K, 16000 kPa, x2 = 0.2594 | 683.52
363.06 K, 17000 kPa, x2 = 0.2594 | 684.53
363.06 K, 18000 kPa, x2 = 0.2594 | 685.52
363.06 K, 19000 kPa, x2 = 0.2594 | 686.5
363.06 K, 20000 kPa, x2 = 0.2594 | 687.43
363.06 K, 21000 kPa, x2 = 0.2594 | 688.35
363.06 K, 22000 kPa, x2 = 0.2594 | 689.23
363.06 K, 23000 kPa, x2 = 0.2594 | 690.14
363.06 K, 24000 kPa, x2 = 0.2594 | 691.03
363.06 K, 25000 kPa, x2 = 0.2594 | 691.89
